1 molecule from patent publication US10328083B1, “Compositions and methods for treating stroke” (University of South Florida, priority 2012, dated 2019) can be followed below.

Where a name gives a salt, the structure may show the parent alone.

Assay type in all cases: in vivo
Assay [1] relates to permanent middle cerebral artery occlusion (MCAO) in rats. Briefly: Mortality rate prior to euthanization after permanent MCAO. As to conditions: for FD: jugular catheter, up to 48 h post MCAO. As for the experimental part: (§1) Permanent middle cerebral artery occlusion (MCAO) was induced in rats. Post MCAO, conivaptan was administered to the rat via jugular catheter at varying times and dosages. The conivaptan used was VAPRISOL® which is a conivaptan hydrochloride premixed in 5% dextrose at 20 mg/100 ml in 100 ml IV bag. The conivaptan was purchased from Astellas Pharma USA, Inc. (lot#0789065) and sub-aliquoted into sterile foil-covered vials.
(§2) For rats receiving the 6-hour treatment, 0.5 ml (0.35 mg/kg) bolus conivaptan was administered six hours post MCAO, followed by administrations of 0.1 ml (0.07 mg/kg) conivaptan at nine hours post MCAO. At 20, 24, 28, and 32 hours post MCAO, 0.1 ml (0.07 mg/kg) conivaptan was administered. A saline control (1.4 ml of 0.9% saline) was then injected at 44 hours post MCAO. At 48 hours post MCAO, the rats were euthanized.
(§3) For rats receiving the 24-hour treatment, 0.5 ml (0.35 mg/kg) bolus conivaptan was administered 24 hours post MCAO, followed by administrations of 0.1 ml (0.07 mg/kg) conivaptan at 20, 24, 28 and 32 hours post MCAO. Saline controls (1.4 ml of 0.9% saline) were injected at 6, 9, and 44 hours post MCAO. At 48 hours post MCAO, the rats were euthanized.
The mortality rate prior to euthanization is provided below in Table 1: […]

For assay [2] the test system is unchanged. Briefly: Fluoro-Jade staining of neural biopsies from the site of the infarct after permanent MCAO. As for the experimental part: as §1, §2, §3
Fluoro-Jade staining of neural biopsies obtained from the site of the infarct was also performed and the results are shown in Table 2.

The test system is the same in assay [3]. Briefly: Results of treatment post MCAO (Table 3; CD11b staining of infarct and surrounding areas per FIGS. 2-4). As to conditions: treatment started 6 h post MCAO; rats euthanized at 48 h post MCAO. As for the experimental part: FIG. 1 is a table showing the conivaptan treatment regimens. The five treatment groups were normal saline (control)[NS], 5% saline infusion+5% saline maintenance [5% IM], conivaptan only [C], conivaptan+5% saline maintenance [C5% M], and conivaptan+5% saline infusion+5% saline maintenance [C5% IM]. (Euth.=euthanized).
FIG. 4 is a graph showing the average area fraction of CD11b staining at 48 hours post MCAO following the various treatments.
Permanent middle cerebral artery occlusion (MCAO) was induced in rats. Post MCAO, conivaptan, hyper saline or normal saline was administered to the rats via jugular catheter at varying times and dosages. The conivaptan used was Vaprisol® which is a conivaptan hydrochloride premixed in 5% dextrose at 20 mg/100 ml in 100 ml IV bag. The conivaptan was purchased from Astellas Pharma USA, Inc. (lot#0789065) and sub-aliquoted into sterile foil-covered vials. Hyper saline solutions were 5% NaCl. Saline solutions were 0.9% NaCl.
For rats receiving the six-hour treatment, 0.5 ml (0.35 mg/kg) bolus conivaptan was administered 6 hours post MCAO, followed by administrations of 0.1 ml (0.07 mg/kg) conivaptan at 9 hours post MCAO. At 20, 24, 28, and 32 hours post MCAO, 0.1 ml (0.07 mg/kg) conivaptan was administered. A saline control (1.4 ml of 0.9% saline) was then injected at 44 hours post MCAO. At 48 hours post MCAO, the rats were euthanized. […]

For `Cc1nc2c([nH]1)-c1ccccc1N(C(=O)c1ccc(NC(=O)c3ccccc3-c3ccccc3)cc1)CC2` [conivaptan, conivaptan hydrochloride], the FD in assay [1] (6-hour treatment: 0.35 mg/kg bolus 6 h post MCAO, then 0.07 mg/kg at 9, 20, 24, 28, 32 h) is given as 2; in assay [1] (24-hour treatment: 0.35 mg/kg bolus 24 h post MCAO, then 0.07 mg/kg doses), 4. The “% Survival” value in assay [1] (6-hour treatment, prior to euthanization at 48 h post MCAO) is recorded as 78%; in assay [1] (24-hour treatment, prior to euthanization at 48 h post MCAO), 56%. Besides, the “% Survival (total)” value in assay [1] (6-hour treatment, value in brackets (total), prior to euthanization at 48 h post MCAO) came out at 82%. The “Fluoro-Jade staining Avg” value in assay [2] (6-hour treatment, n = 7, p = .06 compared to controls) is listed as 38.331 g; in assay [2] (24-hour treatment, n = 5, p = 0.3 compared to controls), 55.388 g. Moreover, the “decrease in Fluoro-Jade staining compared to controls” value in assay [2] (6-hour treatment, p = .06) is recorded as “*p = .06 compared to controls 37% decrease”. Moreover, the “Avg (Table 3, results of treatment)” value in assay [3] stood at 0.486.
